Experimental data published in US7265139B2, “RXR activating molecules” (Incyte San Diego Inc., priority 2001, dated 2007).

Columns and labels:
KKA^y mice = experiment: Antidiabetic activity in type 2 diabetic KKA^y mice; assay type: in vivo, mouse
Experimental: Prior to commencing treatment, all of the animals are bled from the tail vein and serum levels of glucose and triglyceride are measured in duplicate. The animals are then sorted into different treatment groups with equal average triglyceride levels. The animals are treated with a single daily oral dose of the test compound suspended in sesame oil (dose volume of 3 ml/kg).
In short, adult diabetic KKA^y mice are housed in a fixed 12—12-hr artificial light-dark cycle, and maintained on a standard rodent diet. Prior to commencing treatment, all of the animals are bled from the tail vein and serum levels of glucose and triglyceride are measured in duplicate. The animals are then sorted into different treatment groups with equal average triglyceride levels. The animals are treated with a single daily oral dose ranging from 3-30 mg/kg of the test compound suspended in sesame oil (dose volume of 3-5 ml/kg). Following one week of treatment the animals are bled from the tail vein and Serum glucose and triglycerides are measured in duplicate.
In this example, compound 1, which belongs to the novel subclass of RXR ligands is compared to a typical RXR ligand like compound 2 in the treatment of KKA^y mice.
For this study, adult diabetic KKA^y mice were housed in a fixed 12—12-hr artificial light-dark cycle, and maintained on a standard rodent diet. Prior to commencing treatment, all of the animals are bled from the tail vein and serum levels of glucose and triglyceride are measured in duplicate. The animals are then sorted into different treatment groups with equal average triglyceride levels. The animals are treated with a single daily oral dose of the test compound suspended in sesame oil (dose volume of 3 ml/kg).

[1] = system: Mouse 3T3-L1 preadipocytes; experiment: 3T3-L1 adipocyte differentiation assay; assay type: cell-based; conditions: 0.1 μM compared to Compound 1 at equal concentration; pre-adipocytes to adipocytes
Experimental: Mouse 3T3-L1 cells were grown in 96-well tissue culture plates containing growing medium (DME containing 10% calf serum (CS) plus glutamine-pen-strep) at a density of 3,000 cells/well. Two days after reaching confluence, cells are treated with the different compounds in DM (Day 0). Compound 1 is included in all the experiments, and its ability to differentiate 3T3-L1 cells at 0.1 μM is taken as reference for 100% differentiation. After 7 days the lipid content of the cells was determined.
Prior to testing compounds in vivo, they can be run through the in vitro adipocyte differentiation assay based on the protocol of Zhang, et al. (1996) Negative Regulation of Peroxisome Proliferator—Activated Receptor—γGene Expression Contributes to the Antiadipogenic effects of Tumor Necrosis Factor—α. Mol. Endo. 10:1457-1456, incorporated herein by reference. In short, mouse 3T3-L1 preadipocytes are grown in culture medium containing 10% calf serum supplemented with antibiotics. Two days after reaching confluence, cells are treated with the selected compound at different concentrations dissolved in medium containing 10% fetal calf serum supplemented with antibiotics and kept at 10% CO2. The test compounds are replaced every 2-3 days. Differentiation is assessed after 7 days of treatment by the lipid content in the cells, using the Triglyceride (INFINITY) reagent (Sigma Chemical, St. Louis, Mo.).
The ability of a compound to induce preadipocytes to differentiate into adipocytes is an indicator of its antidiabetic activity. This allows for screening many compounds in a simple in vitro assay, thus avoiding the task of testing all compounds in vivo. The adipocyte differentiation assay is based on the protocol of Zhang, et al. (1996) Negative Regulation of Peroxisome Proliferator-Activated Receptor-γ Gene Expression Contributes to the Antiadipogenic effects of Tumor Necrosis Factor—α. Mol. Endo. 10:1457-1456, incorporated herein by reference at least for material related to adipocyte differentiation assays. Mouse 3T3-L1 preadipocytes are grown in culture medium containing 10% calf serum supplemented with antibiotics. Two days after reaching confluence, cells are treated with the selected compound at different concentrations dissolved in medium containing 10% fetal calf serum supplemented with antibiotics and kept at 10% CO2. The test compounds are replaced every 2-3 days. Differentiation is assessed after 7 days of treatment by the lipid content in the cells, using the Triglyceride (INFINITY) reagent (Sigma Chemical, St. Louis, Mo.) (see FIG. 15).

[2] = following one and two weeks of treatment

Structure (SMILES): Cc1cc2c(cc1-c1cc(C=C3SC(=O)NC3=O)ccc1OC(F)(F)F)C(C)(C)CCC2(C)C [Compound 1]
- serum glucose levels compared to vehicle treated control mice (KKA^y mice; 5 mg/kg, single daily oral dose in sesame oil, FIG. 10, p≦0.01): significant decrease
- serum triglyceride levels compared to vehicle treated control mice (KKA^y mice; 5 mg/kg, single daily oral dose, FIG. 11, p≦0.05): significant decrease
- Efficacious in KKAy Mice (KKA^y mice; efficacious = lowers glucose without increasing triglycerides): Yes
- glucose levels compared to vehicle treated control mice (KKA^y mice; [2]): statistically significant decrease
- triglyceride levels compared to vehicle treated control mice (KKA^y mice; [2]): statistically significant decrease
- Differentiation Activity [1]: 100%
